Source: patent US20060002989A1, “Formulations of sumatriptan for absorption across biological membranes, and methods of making and using the same” (priority 2004, published 2006)
Read-outs that look alike come from different tables or passages of the source.

Test system: pig buccal membrane
Assay: Trans-buccal absorption across pig buccal epithelial membrane in side-by-side diffusion cells
Conditions: for Steady-state flux, Fs: pig, 6 h
Experimental: In a side-by-side diffusion experiment, there exists a reservoir on each side of the test biological membrane. […] The steady state flux of absorption, Fs, is calculated by the formula, Fs=(dQ/dt)/A=(dC/dt)×(V/A), wherein Q is the amount of drug permeated, C is the concentration of the drug, A is the permeation area, V is the chamber volume in a side-by-side diffusion cell, and t is the time period over which the drug permeation is monitored. Fs can be determined from the slope of the line attained from plotting the cumulative amount of drug permeated per unit area as a function of time.
Freshly prepared buccal tissue from pigs was used to prepare the buccal epithelial membrane. A dermatometer was used to obtain the buccal epithelial membrane by separating it from the underlying connective tissue. The buccal membranes were used within 3-4 hours of removal of buccal tissue from the pigs.
The buccal epithelial membrane was mounted between side-by-side diffusion cells. The exposed area of the buccal membrane was approximately 0.64 cm^2. […] The final volume of the liquid in the donor-side was 3.5 ml and the volume in the receptor-side was 3.5 ml.
The diffusion system was maintained at 37° C. throughout the experiment. At predetermined intervals over a period of 6 hours, 150 μl of the solution from the receptor-side was withdrawn for HPLC analysis. The receptor-side was refilled with the same volume (150 μl) of KRB solution.
HPLC analysis of the solution withdrawn from the receptor-side was performed using a Waters 2695 separation module HPLC system equipped with a reverse phase C18 column (150 mm×3.9 mm ID, 5 μm) (Waters Corp., Milford, Mass.). The mobile phase was 88% phosphate buffer (0.05 M NH4H2PO4/H3PO4, pH 3.3) and 12% acetonitrile. […] The software used for HPLC assay data analysis was Millenium 32 (Waters Corp., Milford, Mass.).
Microsoft Excel 2000 was used to calculate the steady state flux value of the absorption of the drug across the buccal membrane. The steady state flux (Fs)=(dQ/dt)/A=(dC/dt)×(V/A), wherein Q is the amount of drug permeated, C is concentration of the drug, A is the permeation area, V is the chamber volume, and t is the time period over which the drug permeation is monitored.
The receptor-side contained 3.5 ml of KRB solution.

| effect of absorption enhancer on permeation of sumatriptan succinate across the buccal membrane | Compound | effect of absorption enhancer on permeation of sumatriptan succinate across the buccal membrane (result in words) | other results |
| --- | --- | --- | --- |
| only minor enhancing effects | C[C@H](CCC(=O)NCC(=O)[O-])[C@H]1CC[C@H]2[C@@H]3[C@H](O)C[C@@H]4C[C@H](O)CC[C@]4(C)[C@H]3C[C@H](O)[C@]12C.[Na+] [sodium glycocholate] | – | – |
| only minor enhancing effects | lysolecithin | – | – |

The next lines start with the compound.

| Compound | effect of absorption enhancer on permeation of sumatriptan succinate across the buccal membrane | effect of absorption enhancer on permeation of sumatriptan succinate across the buccal membrane (result in words) | other results |
| --- | --- | --- | --- |
| CNS(=O)(=O)Cc1ccc2[nH]cc(CCN(C)C)c2c1 [Base alone, 3-[2-(dimethylamino)ethyl]-N-methyl-indole-5-methanesulphonamide, reference compound] | – | – | effect of absorption enhancers on absorption of sumatriptan base: not significantly enhanced; Steady-state flux, Fs (6.8 mM): 1.6 ± 1.5 ng/cm^2/min |
| CNS(=O)(=O)Cc1ccc2[nH]cc(CCN(C)C)c2c1.O=C(O)CCC(=O)O [Salt (SS) alone, sumatriptan succinate, reference compound] | – | – | Steady-state flux, Fs (12 mM): 6.0 ± 6.6 ng/cm^2/min |
| CCCCCCCCCCCC(=O)O [lauric acid] | only minor enhancing effects | – | – |
| CCCCCCCCCC(=O)[O-].[Na+] [sodium caprate] | – | enhanced the permeation | effect of absorption enhancer on permeation of sumatriptan succinate across the buccal membrane (result in words, listed as Sodium caprate): most dramatic effect |
| CCCCCCCC(=O)[O-].[Na+] [sodium caprylate] | – | enhanced the permeation | – |
| CCCCCCCCCCCC(=O)[O-].[Na+] [sodium laurate] | – | enhanced the permeation | – |
| CCCCCCCCCCCCOS(=O)(=O)[O-].[Na+] [sodium lauryl sulfate (SLS), sodium lauryl sulfate] | – | enhanced the permeation | – |
